{"source": "paper PMC9732823", "about": "“Discovery of Dual Aβ/Tau Inhibitors and Evaluation of Their Therapeutic Effect on a Drosophila Model of Alzheimer’s Disease” (ACS Chemical Neuroscience, 2022)", "key": {"PAMPA-BBB assay": {"assay": "PAMPA-BBB assay", "description": "Thus, to reduce attrition in the development process, the evaluation of BBB penetration at a very early drug discovery stage is of crucial importance. In light of this, the ability of the previously selected compounds to cross the BBB was predicted by a parallel artificial membrane permeability assay (PAMPA)-BBB,[41] a high-throughput technique widely used as an indicator of a molecule’s passive diffusion through the BBB. Six commercially available drugs were used to validate the assay.\nPAMPA (the parallel artificial membrane permeability assay) is a high-throughput screening tool applicable for the prediction of the passive transport of potential drugs across the BBB.[41] In this study, it has been used as a non-cell-based in vitro assay carried out in a coated 96-well membrane filter. The filter membrane of the donor plate was coated with PBL (Polar Brain Lipid, Avanti) in dodecane (4 μL of 20 mg/mL PBL in dodecane) and the acceptor well was filled with 300 μL of phosphate buffer saline, (PBS pH 7.4; VA). The tested compounds were dissolved first in DMSO and then diluted with PBS pH 7.4 to reach the final concentrations of 50–500 μM in the donor well. […] Then, 300 μL of the donor solution (VD) was added to the donor wells and the donor filter plate was carefully put on the acceptor plate so that the coated membrane was “in touch” with both donor solution and acceptor buffer. In principle, the test compound diffuses from the donor well through the polar brain lipid membrane (area = 0.28 cm^2) to the acceptor well. The concentrations of the tested compound in both donor and the acceptor wells were assessed after 3, 4, 5, and 6 h of incubation in quadruplicate using a UV plate reader, Synergy HT (Biotek) at the maximum absorption wavelength of each compound (n=3). In addition to that, solution of the theoretical compound concentration, simulating the equilibrium state established if the membrane were ideally permeable, was prepared and assessed as well. The concentrations of the compounds in the donor and acceptor wells and the equilibrium concentration were calculated from the standard curve and expressed as the permeability (Pe) according to the equation[41] [drawing 1] where [drawing 2]"}, "Tau protein": {"molecular_target": "T1, Tau protein (Homo sapiens, UniProt P10636)", "T1 construct": "expressed in transfected cells; host or cells: Escherichia coli BL21 (DE3) with pTARA and pRKT42", "T1 sequence (P10636 1-441 isoform P10636-8)": "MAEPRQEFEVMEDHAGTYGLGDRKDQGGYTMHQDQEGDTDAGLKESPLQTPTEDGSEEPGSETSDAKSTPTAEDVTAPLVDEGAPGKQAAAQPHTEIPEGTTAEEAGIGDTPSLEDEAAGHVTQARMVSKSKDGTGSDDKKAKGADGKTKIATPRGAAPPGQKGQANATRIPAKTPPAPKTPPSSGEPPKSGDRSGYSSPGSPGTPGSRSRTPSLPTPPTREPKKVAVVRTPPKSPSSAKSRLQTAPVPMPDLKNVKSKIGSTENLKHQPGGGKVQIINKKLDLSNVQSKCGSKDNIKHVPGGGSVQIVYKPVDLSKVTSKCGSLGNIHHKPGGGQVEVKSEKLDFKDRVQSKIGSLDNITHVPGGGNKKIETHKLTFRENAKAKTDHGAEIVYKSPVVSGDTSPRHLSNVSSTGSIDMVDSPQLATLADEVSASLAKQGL", "assay": "Inhibition of Tau aggregation in intact E. coli cells overexpressing Tau (ThS fluorescence)", "type": "cell-based, Escherichia coli", "outline": "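E. coli BL21(DE3) expressing four-repeat Tau, arabinose-induced in M9 with 25 μM ThS, grown overnight at 37 °C with compound at 10 μM final. ThS emission at 485 nm (excitation 440 nm) normalized to ABS600; 100% = induced DMSO control, 0% = noninduced cells.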"}, "[1]": {"tested_on": "cerebellar granule neurons (CGNs)", "assay": "Neurotoxicity on primary cultures of cerebellar granule neurons (nuclei counting after Hoechst staining)", "conditions": "differentiated CGNs, 24 h, percentage of healthy nuclei on total nuclei, mean ± SEM of three experiments"}, "[2]": {"assay": "Solubility in the in vitro aggregation assay conditions", "conditions": "dedicated solubility assays", "method": "* The results are the mean of at least two independent measurements each performed in duplicate.\n1 Compounds were measured at 50 μM.\nNS = not soluble in the assay conditions"}}, "data": [{"molecule": "CN(C)CCN1C(=O)S/C(=C\\c2ccc3c(c2)C(C)(C)c2cc(/C=C4\\SC(=O)N(CCN(C)C)C4=O)ccc2-3)C1=O", "note": "[Compound 23, (5Z,5′Z)-5,5′-((9,9-Dimethyl-9H-fluorene-2,7-diyl)bis(methanylylidene))bis(3-(2-(dimethylamino)ethyl)thiazolidine-2,4-dione)]", "values": [{"measurement": "Papp", "setting": "PAMPA-BBB assay; PAMPA, pH 7.4", "value": "18.9 ± 5.39", "unit": "×10⁻⁶ cm/s"}, {"measurement": "BBB permeability prediction", "setting": "PAMPA-BBB assay; PAMPA-BBB", "value": "predicted to passively diffuse across the BBB"}, {"measurement": "CNS (+/-)", "setting": "PAMPA-BBB assay; PAMPA-BBB penetration estimation", "value": "CNS + (CNS + (high BBB permeation predicted): Pe (×10-6 cm s-1) > 4.0)"}, {"measurement": "% inhibition Tau aggregation @ 10 μM", "setting": "Tau protein; intact E. coli cells, compound 10 μM, mean ± SEM of four independent experiments, 10 µM", "value": "41.9 ± 3.9", "unit": "%"}, {"measurement": "inhibition at 10 µM", "setting": "Tau protein; read-out: % inhibition Tau aggregation @ 10 μM, intact E. coli cells, compound 10 μM, mean ± SEM of four independent experiments", "value": "> 40", "unit": "%"}, {"measurement": "% survival neurotoxicity @ 10 μM", "setting": "[1]", "value": "87.9 ± 3.4", "unit": "%"}, {"measurement": "solubility in Aβ42 ThT-based assay condition", "setting": "[2]", "value": "too limited to grant trustable results"}]}]}
